Source: ChEMBL document CHEMBL3045418, “Design, synthesis and antidepressant activity evaluation 2-hydroxy-4,6-diisoprenyloxychalcone derivatives” (2013)

Tests used:
Type in all cases: functional
Details in all cases: route intraperitoneal
Mus musculus [1] = assay: Antidepressant activity in Kunming Mus musculus (mouse) assessed as immobility time at 10 mg/kg, ip administered 30 min prior to testing measured after 2 to 6 min by forced swimming test (reference value: 116.7 +/- 12.3 secs)
Mus musculus [2] = assay: Antidepressant activity in Kunming Mus musculus (mouse) assessed as immobility time at 10 mg/kg, ip administered 30 min prior to testing measured after 2 to 6 min by tail suspension test (reference value: 130.5 +/- 9.6 secs)
Mus musculus [3] = assay: Increase in yohombine-induced mortality in Kunming Mus musculus (mouse) at 30 mg/kg, ip administered for 1 hr prior to yohombine challenge measured after 24 hr (reference value: 20%)

Compound	Time (Mus musculus [1]) [s]	Time (Mus musculus [2]) [s]	mortality at 30 mg/kg (Mus musculus [3]) [%]
CNCCC(Oc1ccc(C(F)(F)F)cc1)c1ccccc1 (stereo not drawn) [FLUOXETINE]	68.6	75.6	
CN(C)CCCN1c2ccccc2CCc2ccc(Cl)cc21 [CLOMIPRAMINE]			80
